Read-outs that look alike come from different tables or passages of the source. Values belong to the molecule of their own block, whether it stands above or below them.
Key:
KMT9 [1] = target: T1, KMT9 (Homo sapiens, UniProt Q9Y5N5); assay: Microscale thermophoresis (MST) binding assay; details: for Kd: MST, binding to KMT9, read-out: Kd
T1 sequence (Q9Y5N5 1-214): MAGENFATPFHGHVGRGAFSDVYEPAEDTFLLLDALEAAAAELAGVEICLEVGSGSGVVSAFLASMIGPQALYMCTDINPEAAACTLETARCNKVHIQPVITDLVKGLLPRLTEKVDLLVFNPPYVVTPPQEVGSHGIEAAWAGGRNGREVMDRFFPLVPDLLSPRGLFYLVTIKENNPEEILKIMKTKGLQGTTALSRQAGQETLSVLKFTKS
T1 sequence (Q9UI30 1-125 partner): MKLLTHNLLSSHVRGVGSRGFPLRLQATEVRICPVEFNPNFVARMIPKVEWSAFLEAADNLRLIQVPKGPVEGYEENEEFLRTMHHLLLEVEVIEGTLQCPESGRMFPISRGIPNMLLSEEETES
Experimental: To determine the binding affinity of the compound and KMT9, microscale thermophoresis (MST) analysis was performed with a NanoTemper Monolith NT.115 instrument (NanoTemper Technologies GmbH). KMT9 was labeled with a RED-Tris-NTA labeling kit (NanoTemper Technologies GmbH) based on the manufacturer’s instructions. Buffer including 25 mM HEPES (pH 7.5), 100 mM NaCl, 1 mM DTT and 0.05% Tween was used for the reaction buffer. Varying concentrations of compounds were titrated against His-tag labeled KMT9 proteins (20 nM). Samples were loaded into standard Capillaries (NanoTemper Technologies GmbH) and MST measurements were performed using 40% MST power and 100% LED power. For each set of binding experiments, MST measurement was carried out with Binding Affinity module in MO. Control program under Nano-RED excitation. Data sets were processed with the MO.Affinity Analysis software (NanoTemper Technologies GmbH).

[2] = test system: panel of 27 SET domain-containing and 14 Rossmann-fold methyltransferases; assay: Selectivity assay, radiometric methyltransferase panel; assay type: biochemical; details: IC50 panel, 3H-labeled SAM
Experimental: Selectivity profile of compound 6 was evaluated by testing the IC50 in a panel of methyltransferases. The IC50 of a panel of SET-domain containing and Rossmann-fold methyltransferases was assessed in a radiometric assay measuring substrate methylation using ^3H-labeled SAM by RBC Corp by compound 6. Data was process and plotted using KNIME Analytic Platform from KNIME AG.

KMT9 [3] = target: T1, KMT9; assay: Thermal shift assay (SyproOrange); assay type: binding; details: thermal shift, 2 μM KMT9, 500 μM compound; read-out: ΔTm
Experimental: The assay was carried out in 96-well Hard-Shell PCR plates (Bio-Rad Laboratories Inc.). […] Final assay concentrations were set to 500 μM of compound 8, 2 μM KMT9 and 5× SO. One μL of 20× compound, 4 μL of assay buffer, 10 μL of 2× KMT9 and 5 μL of 4× SO were pipetted. For the no-compound control, 20× inhibitor stock was replaced by DMSO. The final volume was 20 μL. The plate was spun down at 700 rpm for 1 min using a Hettich UNIVERSAL 320 centrifuge and incubated at 25 °C, shaking at 600 rpm. After incubation, the plate was spun down for 1 min at 700 rpm and measurement was conducted using a CFX96 Touch Real-Time PCR Detection System (Bio-Rad Laboratories Inc.). The plate was equilibrated at 20 °C for 4 min and then heated stepwise at a rate of 1 °C per 15 s until 95 °C. After every step, fluorescence was measured in FRET mode. Calculation of melting points was conducted by a Boltzman sigmoidal model using GraphPad Prism 7.0.

endogenous KMT9a [4] = target: T2, endogenous KMT9a (Homo sapiens, UniProt Q9Y5N5); assay: CETSA in SW480 cell lysate, KMT9; assay type: binding; details: 2 h, vs DMSO
T2 construct: increased thermal stability of endogenous KMT9 in SW480 cell lysates; endogenous in cells; host or cells: SW480
T2 sequence (Q9Y5N5 1-214): T1 sequence (Q9Y5N5 1-214)
T2 sequence (Q9UI30 1-125 partner): T1 sequence (Q9UI30 1-125 partner)
Experimental: (§1) For whole cell CETSA, the cells were incubated with 10/15 μM of compound 7b/8/8-N for 18 h. Then, cells were washed with cell culture medium, detached from the surface using trypsin, washed with PBS and the number of cells was determined. Cell concentration was adjusted to 3.6 × 10^7 cells/mL using in PBS with Complete (w/o EDTA, Roche) protease inhibitor. Then, cells were frozen in liquid nitrogen and thawed at 25 °C three times, before being divided in 16 aliquots. Each aliquot was heated to a defined temperature between 40 and 70 °C in a PCR cycler (16 well gradient, 55 °C ± 15). After 3 min incubation, aliquots were snap frozen in liquid nitrogen and thawed at 25 °C. Cell lysates were then centrifuged at 20,000 × g , 4 °C for 20 min. Supernatant were mixed with 5× loading buffer, heated to 70 °C for 5 min and analyzed by Western blotting essentially as previously described. For the CETSA performed with cell lysates, cells were directly harvested and lysed as described above. The lysates were then split and incubated either with DMSO or 10 μM compound 7b for 2 h. Then, lysates were aliquoted again into 16 samples each and treated as described for the whole cell CETSA.

endogenous KMT9a [5] = target: T2, endogenous KMT9a; assay: CETSA in intact SW480 cells, KMT9; assay type: cell-based; details: 18 h, vs DMSO
Experimental: as §1

KMT5A = target: T3, KMT5A (Homo sapiens, UniProt Q9NQR1); assay: CETSA in SW480 cell lysate, KMT5A (negative control); assay type: binding; parameters: endogenous in cells; host or cells: SW480; details: negative control protein
T3 sequence (Q9NQR1 1-393): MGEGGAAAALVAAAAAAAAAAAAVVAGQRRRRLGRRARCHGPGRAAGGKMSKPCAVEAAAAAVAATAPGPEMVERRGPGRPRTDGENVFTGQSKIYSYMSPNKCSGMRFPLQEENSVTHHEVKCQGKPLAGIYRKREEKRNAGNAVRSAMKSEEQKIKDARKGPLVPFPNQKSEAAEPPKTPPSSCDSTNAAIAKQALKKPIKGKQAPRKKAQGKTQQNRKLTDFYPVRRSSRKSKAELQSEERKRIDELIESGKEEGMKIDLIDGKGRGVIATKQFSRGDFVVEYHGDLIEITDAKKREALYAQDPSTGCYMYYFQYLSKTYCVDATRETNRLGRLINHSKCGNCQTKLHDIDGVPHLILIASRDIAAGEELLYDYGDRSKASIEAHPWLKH
Experimental: as §1, with “The lysates were then split and incubated either with DMSO or 10 μM compound 7b for 2 h. Then, lysates were aliquoted again into 16 samples each and treated as described for the whole cell CETSA.” left out
(§2) Figure S4. […] Representative Western blots (A) and quantification (B) showing no obvious shifting melting temperatures (ΔT m) of endogenous KMT5A upon treatment with compound 7b compared to DMSO. […]
(§3) Representative Western blots (C) and quantification (D) showing no shifting melting temperatures (ΔT m) of endogenous KMT5A upon treatment with compound 8 compared to DMSO. […]

KMT9 [6] = target: T1, KMT9; assay: KMT9 methyltransferase inhibition assay (3H-SAM, ETF1 substrate)
Experimental: The assay was carried out in 0.5 mL Eppendorf tubes in duplicates. Assay buffer consisted of 50 mM BTP, 1 mM MgCl2, 1 mM DTT and 0,01% Triton-X100 at a pH of 8.5 (adjusted using 1 M HCl and 1 M NaOH). 20X inhibitor stock (in DMSO), 2× enzyme stock and 4× substrate mix (both in assay buffer) were prepared. The substrate mix consisted of Tritium-labeled S-adenosylmethionine (3H-SAM), S-adenosylmethionine (SAM) and eukaryotic peptide chain release factor subunit1 (, residues 140–275) (ETF1). Final assay concentrations were set to 25 nM KMT9, 0.3 μM 3H-SAM, 0.7 μM SAM and 5 μM ETF1. […] Five μL of 4× substrate mix was added to initiate the reaction. The final reaction volume was 20 μL. For the positive control, the compound was replaced by DMSO; for the negative control, the compound was replaced by DMSO and KMT9 was replaced by assay buffer. The reaction mix was incubated in an Eppendorf thermomixer comfort at 30 °C for 2 h, shaking at 300 rpm. The reaction was quenched using 5 μL 50% trichloroacetic acid (TCA) and incubated at 25 °C for 5 min. Twenty-two μL of the mixture was transferred into 96-well MultiScreenHTS FB filter plates (Merck KGaA, Darmstadt, Germany) and washed four times with 10% TCA and two times with 100% ethanol. The plate was dried overnight, the filters were transferred into individual 6 mL Pony Vials (PerkinElmer Inc., Waltham, MA, USA) and incubated in 3 mL of Ultima Gold scintillation cocktail (PerkinElmer Inc., Waltham, MA, USA) for 30 min. The scintillation signal was measured for 3× 1 min using TriCarb 2910 TR (PerkinElmer) scintillation counter in 3H CPM mode (LL: 0, UL: 18.6).
Inhibition was calculated using the following formula: Inhibition[%]=(1−xc−xpos/xpos−xneg)×100
With xc: signal of compound, xpos: mean signal of positive control, xneg: mean signal of negative control. Data fitting was carried out by GraphPad 7.0 using nonlinear fit ([Inhibitor] vs response – variable slope (four parameters)).

KMT9 [7] = target: T1, KMT9; parameters: method as in previous study; details: compound 2d taken as a reference from the previous study; ref previous study; cited from earlier work
KMT9 [8] = target: T1, KMT9; parameters: method as in previous study; details: compound 2d taken as a reference from the previous study; ref previous study; cited from earlier work; remark: listed apart in the source
KMT9 [9] = target: T1, KMT9; parameters: method as in previous study; details: compound 2d taken as a reference from the previous study; ref previous study; cited from earlier work; remark: listed apart in the source
[10] = test system: H4K12me1 levels in PC-3 M prostate tumor cells; assay: Western blot of cellular H4K12me1 levels; assay type: cell-based; details: PC-3 M cells, 10 μM, 3 days
Experimental: 7 Cellular activity of prodrug compound 8. (A) Levels of H4K12me1 in PC-3 M prostate tumor cells cultured in the presence of DMSO (−), 10 μM compound 8 or compound 8-N for 3 days were analyzed by Western blot using the indicated antibodies. Histone H4 was used as control. (B, C) Proliferation of Caco-2 cells treated with DMSO (Ctrl), compound 8, or compound 8-N were measured by Xcelligence. Data represent means ± s.d (n = 3). (D) Proliferation of HepG2 cells upon treatment of DMSO (Ctrl) and compound 8.
Experiments were performed as previously described. Histones used for Western blot analysis were extracted from cells as following: Cells were harvested, washed with PBS, resuspended in Triton Extraction Buffer (TEB; PBS, Triton ×100, 2 mM PMSF, 0.02% NaN3), stored 10 min on ice, centrifuged, and supernatant was discarded. After washing cells, a second time with TEB, pellets were resuspended in 0.2 N HCl and histones were acid-extracted overnight at 4 °C. Upon centrifugation for 10 min at 2000 rpm, supernatant was collected and protein concentration was determined. Three days before harvesting, cells were transfected with siRNA as indicated. The following antibodies were used: anti-KMT9α (#27630, lot 20062017, Schüle Lab), antihistone H4 (#ab10158, lot GR322677–1, Abcam), anti-H4K12me1 (#27429, lot 27062017, Schüle Lab).

Caco-2 cells = assay: Cell proliferation assay (X-Celligence), Caco-2; assay type: cell-based; details: Xcelligence, vs DMSO
Experimental: Cell proliferation was determined using the X-Celligence RTCA system (Roche). For real-time recording of SW480, Caco-2 cell proliferation, 5000 cells/well were seeded in 16 well E-plates (Roche). […] Cell indices were automatically recorded every 15 min. Relative velocities represent the change of the cell index over time. The sequences of the siRNAs (Stealth RNAi siRNAs; Life Technologies) used in the experiments have been previously described.

KMT9a = target: T4, KMT9a (Homo sapiens, UniProt Q9Y5N5); assay: CETSA in Caco-2 cells, KMT9; assay type: cell-based; parameters: of endogenous KMT9 upon treatment with; endogenous in cells; host or cells: Caco-2; details: 15 μM
T4 sequence (Q9Y5N5 1-214): T1 sequence (Q9Y5N5 1-214)
T4 sequence (Q9UI30 1-125 partner): T1 sequence (Q9UI30 1-125 partner)
Experimental: as §1, with “The lysates were then split and incubated either with DMSO or 10 μM compound 7b for 2 h. Then, lysates were aliquoted again into 16 samples each and treated as described for the whole cell CETSA.” left out
as §2, §3

Kd (KMT9 [1]; given in nM): 30 nM
Selectivity against SET-domain containing and Rossmann-fold MTs [2]: selective for KMT9 against other MTs
Molecule: CNc1ncnc2c1ccn2[C@@H]1C[C@H](CN(CCCNCCc2ccccc2)CC[C@H](N)C(=O)O)[C@@H](O)[C@H]1O [compound 6, (S)-2-Amino-4-((((1R,2R,3S,4R)-2,3-dihydroxy-4-(4-(methylamino)-7H-pyrrolo[2,3-d]pyrimidin-7-yl)cyclopentyl)methyl)(3-(phenethylamino)propyl)amino)butanoic acid]

Kd (KMT9 [1]; given in nM): 12 nM
Kd (KMT9 [1]): 10 nM
ΔTm at 500 µM (KMT9 [3]): 19.7 °C
ΔTm at 10 µM (endogenous KMT9a [4]): 10.9 °C
ΔTm at 10 µM (endogenous KMT9a [5]): 1.8 °C
ΔTm at 10 µM (KMT5A): 1.1 °C
IC50 (KMT9 [6]): 160 nM
Molecule: CNc1ncnc2c1ccn2[C@@H]1C[C@H](CN(CCCNCCc2ccc(Oc3ccc(Cl)cc3)c(F)c2)CC[C@H](N)C(=O)O)[C@@H](O)[C@H]1O [compound 7b, (s)-2-Amino-4-((3-((4-(4-chlorophenoxy)-3-fluorophenethyl)amino)propyl) (((1R,2R,3S,4R)-2,3-dihydroxy-4-(4-(methylamino)-7H-pyrrolo[2,3-d]pyrimidin-7-yl)cyclopentyl)methyl)amino)butanoic Acid]

Increase of binding compared to compound 1 (KMT9 [1]; Kd ratio vs compound 1): about 1000 fold
Molecule: NCCCN(CC[C@H](N)C(=O)O)C[C@H]1O[C@@H](n2cnc3c(N)ncnc32)[C@H](O)[C@@H]1O [compound 2d, (S)-2-Amino-4-((((2R,3S,4R,5R)-5-(6-amino-9H-purin-9-yl)-3,4-dihydroxytetrahydrofuran-2-yl)methyl)(3-aminopropyl)amino)butanoic acid]
Kd (KMT9 [7]): 10 nM
IC50 (KMT9 [8]): 29 nM
ΔTm (KMT9 [9]): ΔTm= 18.12 K

Molecule: Ethyl (S)-2-amino-4-((3-(4-(4-chlorophenoxy)-3-fluorophenethoxy)propyl) (((1R,2R,3S,4R)-2,3-dihydroxy-4-(4-(methylamino)-7H-pyrrolo[2,3-d]pyrimidin-7-yl)cyclopentyl)methyl)amino)butanoate [compound 8-N]
ΔTm of endogenous KMT9 (CETSA) (endogenous KMT9a [5]; 10 μM): −0.6 K
Levels of H4K12me1 [10]: no effect was observed
Proliferation of Caco-2 cells (Caco-2 cells): fails to do so
ΔTm of KMT9 (CETSA) (KMT9a): 0.1 K

Source: paper PMC12257510, “Structure-Guided Design of a KMT9 Inhibitor Prodrug with Cellular Activity” (Journal of Medicinal Chemistry, 2025)
